Values after ≈ are worked out from the molar mass of the structure shown. Structures can show the parent of a compound that is named as a salt. Where two headings read alike, the source gives them in different places.

For the experiment, the system named is Treponema hyodysenteriae. As to the kind of experiment: in vitro Streak Plate Test Method (inhibition endpoint / MIC on trypticase soy blood agar). Type of experiment: cell-based. The following applies: for Inhibition Endpoints / MIC: first number = growth occurred, second = no growth, 48 hrs at 39°C anaerobic; for MIC: Brachyspira hyodysenteriae, 48 h. Here is the method:
The following test procedure was used to evaluate the anti-Treponema hyodysenteriae activity of the compounds in the present invention. This test procedure establishes the lowest concentration of the compounds that will inhibit the growth on cultures of Treponema hyodysenteriae in an in vitro Streak Plate Test Method.
Procedure: Stock solutions containing 10,000, 1,000, 100, 10, 1.0, and 0.1, micrograms per milliliters of the compound to be tested were prepared. The final dilutions to establish the test concentrations in the media were made by placing the correct volume of stock solution in a petri dish, adding the media (trypticase soy blood agar), and mixing before the media solidified. After the media solidified, the test cultures of Treponema hyodysenteriae were streaked onto the surface of the agar. Petri dishes containing media without test samples were also set up as culture controls and are inoculated in the same manner. All inoculated plates were incubated at 39°C in anaerobic jars for 48 hrs. Inhibition endpoints were then determined by observing the test plates for growth or no growth of the test cultures at the various concentrations of the compounds. If the culture growth occured at one concentration but not at the next higher concentration, the inhibitory endpoint or MIC (Minimum Inhibitory Concentration) was considered the higher concentration.
Referring to Table 1, the culture numbers refer to field isolate strains of Treponema hyodysenteriae. These field isolates were isolated in Illinois, Iowa, and Nebraska. The numbers giving the results in the Table are read as follows: the first number for each isolate and compound tested corresponds to the concentration in micrograms per milliliter where growth occurred and the second number corresponds to the concentration in micrograms per milliliter where no growth occurred.

The mark [1] stands for this setting: Culture No. 8064 (field isolate).
The mark [2] stands for this setting: Culture No. 8072 (field isolate).
[3] abbreviates: Culture No. 8076 (field isolate).
The mark [4] stands for this setting: Culture No. 8080 (field isolate).
Where [5] appears, read: Culture No. 8087 (field isolate).
The mark [6] stands for this setting: Culture No. 8098 (field isolate).
[7] abbreviates: Culture No. 8125 (field isolate).
Setting [8] is: Culture No. B-100 (field isolate).
[9] abbreviates: Culture No. B-140 (field isolate).

On to Carriomycin Na [reference compound], for which the “Inhibition Endpoints” value under setting [1] is recorded as “.01-.05 µgs/ml”; the “Inhibition Endpoints” value under setting [2] is recorded as “<.01 µgs/ml”; the “Inhibition Endpoints” value under setting [3] is “<.01 µgs/ml”; the “Inhibition Endpoints” value under setting [4] is listed as “.01-.05 µgs/ml”; the “Inhibition Endpoints” value under setting [5] is reported as “.01-.05 µgs/ml”; the “Inhibition Endpoints” value under setting [6] is on record as “<.01 µgs/ml”. Also, the “Inhibition Endpoints” value under setting [7] is on record as “<.01 µgs/ml”. In addition, where the note is “summary of Table 1”, the “activity compared to the controls” value is reported as “comparable activity”.

On to Mn Lysocellin, for which the “Inhibition Endpoints” value is “.1-.5 µgs/ml” under setting [1]; “.1-.5 µgs/ml” under setting [2]; “.1-.5 µgs/ml” under setting [3]; “.1-.5 µgs/ml” under setting [4]; “.1-.5 µgs/ml” under setting [5]; “.1-.5 µgs/ml” under setting [6]. In addition, the “Inhibition Endpoints” value by setting is: under setting [7], “.1-.5 µgs/ml”; under setting [8], “.1-.5 µgs/ml”; under setting [9], “.1-.5 µgs/ml”.

With Lysocellin Na, the “Inhibition Endpoints” value is listed as “.1-.5 µgs/ml” under setting [1]; “.1-.5 µgs/ml” under setting [2]; “.1-.5 µgs/ml” under setting [3]; “.1-.5 µgs/ml” under setting [4]; “.1-.5 µgs/ml” under setting [5]; “.1-.5 µgs/ml” under setting [6]. Further, the “Inhibition Endpoints” value under setting [7] is listed as “.1-.5 µgs/ml”, the “Inhibition Endpoints” value under setting [8] is recorded as “.1-.5 µgs/ml” and the “Inhibition Endpoints” value under setting [9] is reported as “.1-.5 µgs/ml”.

Cu Lysocellin: the “Inhibition Endpoints” value by setting is: under setting [1], “.1-.5 µgs/ml”; under setting [2], “.05-.1 µgs/ml”; under setting [3], “.05-.1 µgs/ml”; under setting [4], “.1-.5 µgs/ml”; under setting [5], “.1-.5 µgs/ml”; under setting [6], “.05-.1 µgs/ml”. The “Inhibition Endpoints” value under setting [7] was “.1-.5 µgs/ml”, the “Inhibition Endpoints” value under setting [8] is “.1-.5 µgs/ml” and the “Inhibition Endpoints” value under setting [9] was “.1-.5 µgs/ml”.

Regarding Lysocellin Free Acid, the “Inhibition Endpoints” value was “.1-.5 µgs/ml” under setting [1]; “.01-.05 µgs/ml” under setting [2]; “<.01 µgs/ml” under setting [3]; “.1-.5 µgs/ml” under setting [4]; “.05-.1 µgs/ml” under setting [5]; “.05-.1 µgs/ml” under setting [6]. Moreover, the “Inhibition Endpoints” value by setting is: under setting [7], “.01-.05 µgs/ml”; under setting [8], “.01-.05 µgs/ml”; under setting [9], “.01-.1 µgs/ml”.

On to Zn Lysocellin, for which the “Inhibition Endpoints” value under setting [1] is “.1-.5 µgs/ml”; the “Inhibition Endpoints” value under setting [2] was “.1-.5 µgs/ml”; the “Inhibition Endpoints” value under setting [3] is listed as “.1-.5 µgs/ml”; the “Inhibition Endpoints” value under setting [4] is “.1-.5 µgs/ml”; the “Inhibition Endpoints” value under setting [5] is listed as “.05-.1 µgs/ml”; the “Inhibition Endpoints” value under setting [6] is “.1-.5 µgs/ml”. In addition, the “Inhibition Endpoints” value reads like this: under setting [7], “.05-.1 µgs/ml”; under setting [8], “.05-.1 µgs/ml”; under setting [9], “.05-.1 µgs/ml”.

On to Ni Lysocellin, for which the “Inhibition Endpoints” value is on record as “.05-.1 µgs/ml” under setting [1]; “<.01 µgs/ml” under setting [2]; “.05-.1 µgs/ml” under setting [3]; “.1-.5 µgs/ml” under setting [4]; “.05-.1 µgs/ml” under setting [5]; “.05-.1 µgs/ml” under setting [6]. Besides, the “Inhibition Endpoints” value under setting [7] is reported as “<.01 µgs/ml”, the “Inhibition Endpoints” value under setting [8] is recorded as “<.01 µgs/ml” and the “Inhibition Endpoints” value under setting [9] is recorded as “<.01 µgs/ml”.

Turning to `CCC(C(=O)C(C)C(O)C(C)CCc1ccc(C)c(O)c1C(=O)O)C1OC(CC)(C2CCC(O)(CC)C(C)O2)CC1C` (centres unmarked) [Lasalocid Na, reference compound], the MIC reads like this: (Culture No. 8064 (field isolate), read-out: Inhibition Endpoints) 1 to 5 µg/mL (≈ 1.69 to 8.46 µM); (Culture No. 8072 (field isolate), read-out: Inhibition Endpoints) 1 to 5 µg/mL (≈ 1.69 to 8.46 µM); (Culture No. 8076 (field isolate), read-out: Inhibition Endpoints) 1 to 5 µg/mL (≈ 1.69 to 8.46 µM); (Culture No. 8080 (field isolate), read-out: Inhibition Endpoints) 0.5 to 1 µg/mL (≈ 0.846 to 1.69 µM); (Culture No. 8087 (field isolate), read-out: Inhibition Endpoints) 1 to 5 µg/mL (≈ 1.69 to 8.46 µM); (Culture No. 8098 (field isolate), read-out: Inhibition Endpoints) 1 to 5 µg/mL (≈ 1.69 to 8.46 µM). The MIC is, setting by setting: (Culture No. 8125 (field isolate), read-out: Inhibition Endpoints) 1 to 5 µg/mL (≈ 1.69 to 8.46 µM); (Culture No. B-100 (field isolate), read-out: Inhibition Endpoints) 0.5 to 1 µg/mL (≈ 0.846 to 1.69 µM); (Culture No. B-140 (field isolate), read-out: Inhibition Endpoints) 1 to 5 µg/mL (≈ 1.69 to 8.46 µM).

On to `CCC[C@@H]1C[C@@H](C(=O)N[C@@H]([C@H]2O[C@H](SC)[C@H](O)[C@@H](O)[C@H]2O)[C@@H](C)O)N(C)C1` [Lincomycin HCL, reference compound], for which the MIC lay in the range of 10 to 50 µg/mL (read-out: Inhibition Endpoints, Culture No. 8064 (field isolate)); 10 to 50 µg/mL (read-out: Inhibition Endpoints, Culture No. 8072 (field isolate)); 10 to 50 µg/mL (read-out: Inhibition Endpoints, Culture No. 8076 (field isolate)); 10 to 50 µg/mL (read-out: Inhibition Endpoints, Culture No. 8080 (field isolate)); 10 to 50 µg/mL (read-out: Inhibition Endpoints, Culture No. 8087 (field isolate)); 10 to 50 µg/mL (read-out: Inhibition Endpoints, Culture No. 8098 (field isolate)). Besides, the MIC was 10 to 50 µg/mL (read-out: Inhibition Endpoints, Culture No. 8125 (field isolate)); 1 to 5 µg/mL (read-out: Inhibition Endpoints, Culture No. B-100 (field isolate)); 0.05 to 0.1 µg/mL (read-out: Inhibition Endpoints, Culture No. B-140 (field isolate)).

As for Na Zn Lysocellin, the “Inhibition Endpoints” value reads like this: under setting [1], 1.0-5.0 µgs/ml; under setting [2], 1.0-5.0 µgs/ml; under setting [3], 1.0-5.0 µgs/ml; under setting [4], “.5-1.0 µgs/ml”; under setting [5], 1.0-5.0 µgs/ml; under setting [6], “.1-.5 µgs/ml”. The “Inhibition Endpoints” value is listed as 1.0-5.0 µgs/ml under setting [7], 1.0-5.0 µgs/ml under setting [8] and 1.0-5.0 µgs/ml under setting [9].

Consider Co Lysocellin, for which the “Inhibition Endpoints” value by setting is: under setting [1], “.05-.1 µgs/ml”; under setting [2], “<.01 µgs/ml”; under setting [3], “.05-.1 µgs/ml”; under setting [4], “.05-.1 µgs/ml”; under setting [5], “.05-.1 µgs/ml”; under setting [6], “.05-.1 µgs/ml”. For the same compound, the “Inhibition Endpoints” value is “<.01 µgs/ml” under setting [7], “<.01 µgs/ml” under setting [8] and “<.01 µgs/ml” under setting [9].

For the origin of these results see patent EP0250134B1, “Method for combating swine dysentery” (IMCERA Group Inc., priority 1986, dated 1987).
